Consider 3 compounds from patent publication EP2433927A1, “KETOXIME ESTER PHOTOINITIATOR” (Changzhou Tronly New Electronic Materials Co., Ltd, priority 2009, dated 2010).

The nature of data set [1]: Thermal stability by TGA (temperature at weight loss). To be noted: for Temp. at Weight Loss 5% / Temp. at Weight Loss 10% / Temp. at Weight Loss 15%: TGA, N2 at 10 °C/min; for Temp. at Weight Loss 5%: 5% weight loss; for Temp. at Weight Loss 10%: 10% weight loss; for Temp. at Weight Loss 15%: 15% weight loss; for thermal stability: result in words, compared with material A (OXE-1). The format is physicochemical.

The nature of data set [2]: Solubility of the photoinitiators in organic solvents. To be noted: 20°C, 100 g solvent. It counts as physicochemical.

For the compound `CCCCCCC(=NOC(=O)c1ccccc1)C(=O)c1ccc(Sc2ccccc2)cc1` [A, 1-(4-phenylthiophenyl)-n-octane-1,2-dione-2-benzoic acid oxime ester, reference compound], in data set [1], the “Temp. at Weight Loss 5%” value came out at 185 °C, the “Temp. at Weight Loss 10%” value came out at 201 °C and the “Temp. at Weight Loss 15%” value is 213 °C.

Turning to `CCn1c2ccc(C(=O)C(CC3CCCC3)=NOC(=O)c3ccccc3)cc2c2cc(C(=O)c3ccccc3C)ccc21` [C, 1-(6-o-methylbenzoyl-9-ethylcarbazole-3-yl)-(3-cyclopentyl)-propane-1,2-dione-2-benzoic acid oxime ester], in data set [1], the “Temp. at Weight Loss 5%” value stood at 230 °C, the “Temp. at Weight Loss 10%” value came to 245 °C, the “Temp. at Weight Loss 15%” value stood at 255 °C and the thermal stability result is recorded as “better thermal stability than that of material A”. For the same compound, the solubility in data set [2] (solvent PGMEA) is on record as 6.93 g. Further, the solubility in data set [2] (solvent cyclohexanone) worked out at 18 g.

Take `O=C(ON=C(CC1CCCC1)C(=O)c1ccc(Sc2ccccc2)cc1)c1ccccc1` [B, 1-(4-phenylthiophenyl)-(3-cyclopentyl)-propane-1,2-dione-2-benzoic acid oxime ester]: in data set [1], the “Temp. at Weight Loss 5%” value worked out at 205 °C, the “Temp. at Weight Loss 10%” value stood at 225 °C, the “Temp. at Weight Loss 15%” value turned out to be 236 °C and the thermal stability result is reported as “better thermal stability than that of material A”. Further, the solubility in data set [2] (solvent PGMEA) amounted to 27.49 g. Also, the solubility in data set [2] (solvent cyclohexanone) is on record as 35 g.
